Consider 63 molecules from US8551984B2, “Aminopyrimidines as SYK inhibitors” (Merck Sharp & Dohme Corp., priority 2009, dated 2013).

The target in one experiment is recombinant human SYK (GST-hSYK fusion protein) (Homo sapiens, UniProt P43405). The experiment in a line: biochemical. The settings on record: rhSYK Activity, Table 21.
Source text: Homogeneous Time-Resolved Fluorescence (HTRF) Assay for the Recombinant Human SYK Enzyme:
`FC(F)(F)c1ccnc(Nc2cccc(-c3cnc(C4CCCO4)s3)c2)n1` (stereo not drawn) [Example 21-1]: the IC50 is < 0.1 µM.

Turning to `CN1CCOC(c2ncc(-c3cccc(Nc4nccc(C(F)(F)F)n4)c3)s2)C1` (stereo not drawn) [Example 21-2], the IC50 is < 0.1 µM.

In the case of `CS(=O)(=O)Cc1ncc(-c2cccc(Nc3nccc(C(F)(F)F)n3)c2)s1` [Example 21-3], the IC50 was < 0.1 µM.

Regarding `Cn1cc(-c2ncc(-c3cccc(Nc4nccc(C(F)(F)F)n4)c3)s2)cn1` [Example 21-4], the IC50 is < 0.1 µM.

With `FC(F)(F)c1ccnc(Nc2cccc(-c3cnc(C4CCOC4)s3)c2)n1` (stereo not drawn) [Example 21-5], the IC50 was < 0.1 µM.

In the case of `FC(F)(F)c1ccnc(Nc2cccc(-c3cnc(CN4CCOCC4)s3)c2)n1` [Example 21-6], the IC50 is < 0.1 µM.

For the molecule `FC(F)(F)c1ccnc(Nc2cccc(-c3cnc(C4CCc5ccccc54)s3)c2)n1` (stereo not drawn) [Example 21-7], the half-maximal inhibitory concentration (IC50) was 1 to 10 µM.

As for `CCN(CC)CCC(C)(O)c1ncc(-c2cccc(Nc3nccc(C(F)(F)F)n3)c2)s1` (stereo not drawn) [Example 21-8], the IC50 is 0.1 to 1 µM.

As to `FC1(F)CC(c2ncc(-c3cccc(Nc4nccc(C(F)(F)F)n4)c3)s2)C1` [Example 21-9], the IC50 is 0.1 to 1 µM.

`O=C1OCCN1Cc1ncc(-c2cccc(Nc3nccc(C(F)(F)F)n3)c2)s1` [Example 21-10]: the half-maximal inhibitory concentration (IC50) is < 0.1 µM.

In the case of `COC(=O)[C@H]1CC[C@H](c2ncc(-c3cccc(Nc4nccc(C(F)(F)F)n4)c3)s2)CC1` [Example 21-11, methyl trans-4-[5-(3-{[4-(trifluoromethyl)pyrimidin-2-yl]amino}phenyl)-1,3-thiazol-2-yl]cyclohexanecarboxylate], the half-inhibitory concentration (IC50) lay in the range of 0.1 to 1 µM.

In the case of `O=C(NCCO)[C@H]1CC[C@H](c2ncc(-c3cccc(Nc4nccc(C(F)(F)F)n4)c3)s2)CC1` [Example 21-12], the IC50 is < 0.1 µM.

Regarding `O=C1CC(c2ncc(-c3cccc(Nc4nccc(C(F)(F)F)n4)c3)s2)CN1` (stereo not drawn) [Example 21-14], the IC50 was < 0.1 µM.

For `FC(F)(F)c1ccnc(Nc2cccc(-c3cnc(C4COCCO4)s3)c2)n1` (stereo not drawn) [Example 21-15], the IC50 was < 0.1 µM.

`CN1CC(c2ncc(-c3cccc(Nc4nccc(C(F)(F)F)n4)c3)s2)CCC1=O` (stereo not drawn) [Example 21-17]: the IC50 is < 0.1 µM.

Take `CN1CCCCCC1c1ncc(-c2cccc(Nc3nccc(C(F)(F)F)n3)c2)s1` (stereo not drawn) [Example 21-18]: the 50% inhibitory concentration (IC50) lay in the range of 0.1 to 1 µM.

The same experiment, now with this note: rhSYK Activity, Table 27.
For `OC(c1ncc(-c2cc(NCC(F)(F)F)cc(Nc3nccc(C(F)(F)F)n3)c2)s1)C(F)F` (stereo not drawn) [Example 27-1], the IC50 was < 0.1 µM.

Regarding `CC(O)(c1ncc(-c2cc(NCC(F)(F)F)cc(Nc3nccc(C(F)(F)F)n3)c2)s1)C(F)(F)F` (stereo not drawn) [Example 27-2], the IC50 was < 0.1 µM.

The same experiment, now with this note: rhSYK Activity, Table 33-A.
Turning to `Cc1cc(Nc2ncc(F)cn2)cc(-c2cnc(C3(O)CCC(C)(C(=O)O)CC3)s2)c1` (stereo not drawn) [Example 33A-3], the IC50 was < 0.1 µM.

For `Cc1cc(Nc2ncc(F)cn2)cc(-c2cnc([C@]3(O)CC[C@](C)(C(=O)O)CC3)s2)c1` [Example 33A-4], the IC50 was < 0.1 µM.

Consider `Cc1cc(Nc2nccc(C(F)(F)F)n2)cc(-c2cnc([C@]3(O)CC[C@H](C(=O)O)CC3)s2)c1` [Example 33A-8], for which the IC50 is < 0.1 µM.

As for `Cc1cc(Nc2nccc(C(F)(F)F)n2)cc(-c2cnc(C3(O)CCC(C(=O)O)(c4ccccc4)CC3)s2)c1` (stereo not drawn) [Example 33A-9], the IC50 is < 0.1 µM.

With `CCOC(=O)C1(C)CCC(O)(c2ncc(-c3cc(C)cc(Nc4nccc(C(F)(F)F)n4)c3)s2)CC1` (stereo not drawn) [Example 33A-11], the IC50 is 0.1 to 1 µM.

Regarding `Cc1cc(Nc2nccc(C(F)(F)F)n2)cc(-c2cnc([C@]3(O)CC[C@](C)(C(=O)O)CC3)s2)c1` [Example 33A-12], the IC50 is < 0.1 µM.

Take `Cc1cc(Nc2nccc(C(F)(F)F)n2)cc(-c2cnc(C3(O)CCC(C)(C(=O)O)CC3)s2)c1` (stereo not drawn) [Example 33A-13]: the IC50 is < 0.1 µM.

As for `COC(=O)C1(NC(C)=O)CCC(O)(c2ncc(-c3cc(C)cc(Nc4nccc(C(F)(F)F)n4)c3)s2)CC1` (stereo not drawn) [Example 33A-14], the IC50 is < 0.1 µM.

For the molecule `CC(=O)NC1(C(=O)O)CCC(O)(c2ncc(-c3cc(C)cc(Nc4nccc(C(F)(F)F)n4)c3)s2)CC1` (stereo not drawn) [Example 33A-15], the IC50 was < 0.1 µM.

For the molecule `Cc1cc(Nc2nccc(C(F)(F)F)n2)cc(-c2cnc([C@]3(O)CC[C@H](CC(=O)O)CC3)s2)c1` [Example 33A-16], the IC50 is < 0.1 µM.

`Cc1cc(Nc2nccc(C(F)(F)F)n2)cc(-c2cnc(C3(O)CCC(CCC(=O)O)CC3)s2)c1` (stereo not drawn) [Example 33A-18]: the IC50 was < 0.1 µM.

Turning to `CCOC(=O)CCC1CCC(O)(c2ncc(-c3cc(C)cc(Nc4nccc(C(F)(F)F)n4)c3)s2)CC1` (stereo not drawn) [Example 33A-21], the IC50 was < 0.1 µM.

Turning to `O=C(O)[C@H]1CC[C@@](O)(c2ncc(-c3cc(Cl)cc(Nc4nccc(C(F)(F)F)n4)c3)s2)CC1` [Example 33A-22], the IC50 is < 0.1 µM.

Turning to `O=C(O)[C@H]1CC[C@@](O)(c2ncc(-c3cccc(Nc4nccc(C(F)(F)F)n4)c3)s2)CC1` [Example 33A-23], the IC50 was < 0.1 µM.

For `O=C(O)[C@H]1CC[C@](O)(c2ncc(-c3cccc(Nc4nccc(C(F)(F)F)n4)c3)s2)CC1` [Example 33A-24], the IC50 is < 0.1 µM.

As to `CCOC(=O)[C@H]1CC[C@](O)(c2ncc(-c3cccc(Nc4nccc(C(F)(F)F)n4)c3)s2)CC1` [Example 33A-25], the IC50 is < 0.1 µM.

With `CCOC(=O)[C@H]1CC[C@@](O)(c2ncc(-c3cccc(Nc4nccc(C(F)(F)F)n4)c3)s2)CC1` [Example 33A-26], the half-maximal inhibitory concentration (IC50) fell in the range of 0.1 to 1 µM.

Consider `Cc1cc(Nc2nccc(C(C)C)n2)cc(-c2cnc([C@]3(O)CC[C@@H](C(=O)OC(C)(C)C)CC3)s2)c1` [Example 33A-29], for which the IC50 fell in the range of 0.1 to 1 µM.

For the molecule `Cc1cc(Nc2nccc(C)n2)cc(-c2cnc([C@]3(O)CC[C@@H](C(=O)O)CC3)s2)c1` [Example 33A-30], the IC50 was < 0.1 µM.

As for `Cc1cc(Nc2nccc(C)n2)cc(-c2cnc([C@]3(O)CC[C@H](C(=O)O)CC3)s2)c1` [Example 33A-31], the IC50 was < 0.1 µM.

`Cc1cc(Nc2nccc(C)n2)cc(-c2cnc(C3(O)CCC(CC(=O)O)CC3)s2)c1` (stereo not drawn) [Example 33A-32]: the IC50 is < 0.1 µM.

As for `Cc1cc(Nc2nccc(OC(C)C)n2)cc(-c2cnc([C@]3(O)CC[C@@H](C(=O)OC(C)(C)C)CC3)s2)c1` [Example 33A-34], the concentration for half-maximal inhibition (IC50) lay in the range of 0.1 to 1 µM.

Turning to `COc1ccnc(Nc2cc(C)cc(-c3cnc(C4(O)CCC(C(=O)O)CC4)s3)c2)n1` (stereo not drawn) [Example 33A-35], the IC50 was < 0.1 µM.

Regarding `COc1ccnc(Nc2cc(C)cc(-c3cnc([C@]4(O)CC[C@](C)(C(=O)O)CC4)s3)c2)n1` [Example 33A-38], the IC50 is < 0.1 µM.

With `COC(=O)C1CCC(O)(c2ncc(-c3cc(C)cc(Nc4ncc(F)c(C5CC5)n4)c3)s2)CC1(C)C` (stereo not drawn) [Example 33A-39], the IC50 is < 0.1 µM.

`Cc1cc(Nc2ncc(F)c(C3CC3)n2)cc(-c2cnc(C3(O)CCC(C(=O)O)C(C)(C)C3)s2)c1` (stereo not drawn) [Example 33A-40]: the IC50 is < 0.1 µM.

`Cc1cc(Nc2ncc(F)cn2)cc(-c2cnc(C3(O)CCC(C(=O)O)C(C)(C)C3)s2)c1` (stereo not drawn) [Example 33A-45]: the IC50 was in the range of 0.1 to 1 µM.

On to `CC(C)(O)c1cc(Nc2nccc(C(F)(F)F)n2)cc(-c2cnc(C3(O)CCC(C(=O)O)C(C)(C)C3)s2)c1` (stereo not drawn) [Example 33A-48], for which the IC50 was < 0.1 µM.

Regarding `COC(=O)C1CCC(O)(c2ncc(-c3cc(COC(C)=O)cc(Nc4nccc(C(F)(F)F)n4)c3)s2)CC1(C)C` (stereo not drawn) [Example 33A-49], the IC50 was < 0.1 µM.

Take `COC(=O)C1CCC(O)(c2ncc(-c3cc(Nc4nccc(C(F)(F)F)n4)cc(C(F)F)c3)s2)CC1(C)C` (stereo not drawn) [Example 33A-55]: the IC50 lay in the range of 0.1 to 1 µM.

As to `CC1(C)CC(O)(c2ncc(-c3cc(Nc4nccc(C(F)(F)F)n4)cc(C(F)F)c3)s2)CCC1C(=O)O` (stereo not drawn) [Example 33A-56], the IC50 was < 0.1 µM.

Consider `COC(=O)C1CCC(O)(c2ncc(-c3cc(Nc4nccc(C(F)(F)F)n4)cc(C4CC4)c3)s2)CC1(C)C` (stereo not drawn) [Example 33A-61], for which the IC50 is < 0.1 µM.

Turning to `COC(=O)C1CCC(O)(c2ncc(-c3cccc(Nc4nccc(C(F)(F)F)n4)c3)s2)CC1(C)C` (stereo not drawn) [Example 33A-65], the IC50 was 0.1 to 1 µM.

With `COC(=O)C1CCC(O)(c2ncc(-c3cc(C)cc(Nc4nccc(C)n4)c3)s2)CC1(C)C` (stereo not drawn) [Example 33A-69], the 50% inhibitory concentration (IC50) was < 0.1 µM.

Regarding `COC(=O)C1CCC(O)(c2ncc(-c3cc(C)cc(Nc4nccc(C5CC5)n4)c3)s2)CC1(C)C` (stereo not drawn) [Example 33A-70], the IC50 is < 0.1 µM.

`Cc1cc(Nc2nccc(C3CC3)n2)cc(-c2cnc(C3(O)CCC(C(=O)O)C(C)(C)C3)s2)c1` (stereo not drawn) [Example 33A-71]: the IC50 is < 0.1 µM.

For the molecule `Cc1cc(Nc2nccc(C(F)(F)F)n2)cc(-c2cnc(C3(O)CCC(C(=O)O)C(C)(C)C3C)s2)c1` (stereo not drawn) [Example 33A-75], the IC50 was < 0.1 µM.

The same experiment, now with this note: rhSYK Activity, Table 33B.
As for `Cc1cc(Nc2nccc(C(F)(F)F)n2)cc(-c2cnc(C3(O)CC(C(=O)O)C3)s2)c1` (stereo not drawn) [Example 33B-1], the IC50 was < 0.1 µM.

In the case of `Cc1cc(Nc2nccc(C(F)(F)F)n2)cc(-c2cnc(C3(O)CCCC(C(=O)O)C(C)(C)C3)s2)c1` (stereo not drawn) [Example 33B-11], the IC50 was < 0.1 µM.

Regarding `Cc1cc(Nc2nccc(C)n2)cc(-c2cnc(C3(O)CCC(C(=O)O)C(C(C)C)C3)s2)c1` (stereo not drawn) [Example 33B-35], the IC50 was < 0.1 µM.

For the molecule `Cc1cc(Nc2nccc(C)n2)cc(-c2cnc(C3(O)CCC(C(=O)O)C(c4ccccc4)C3)s2)c1` (stereo not drawn) [Example 33B-37], the IC50 is < 0.1 µM.

The same experiment, now with this note: rhSYK Activity, Table 33C.
As to `Cc1cc(Nc2nccc(C(F)(F)F)n2)cc(-c2cnc(C3(O)CC4(CC(C(=O)O)C4)C3)s2)c1` (stereo not drawn) [Example 33C-1], the IC50 was < 0.1 µM.

As for `Cc1cc(Nc2nccc(C(F)(F)F)n2)cc(-c2cnc(C3(O)CC4CCC(C3)C4C(=O)O)s2)c1` (stereo not drawn) [Example 33C-2], the IC50 was < 0.1 µM.

Staying with this experiment, now noted: rhSYK Activity, table of Examples 19-x.
Take `CC(C)NC(=O)Nc1cc(Nc2nccc(C(F)(F)F)n2)cc(-c2cnc(C3(O)CCC3)s2)c1` [Example 19-4]: the IC50 was < 0.1 µM.

Turning to `NC(=O)NC(=O)Nc1cc(Nc2nccc(C(F)(F)F)n2)cc(-c2cnc(C3(O)CCC3)s2)c1` [Example 19-5], the IC50 is < 0.1 µM.
